Assay results from patent publication US8394401B2, “Antiobesity or antihyperlipidemic food, feeding stuff or supplement containing lysine” (Ajinomoto Co., Inc., priority 2004, dated 2013).

How the values were obtained:
Format in all cases: in vivo, C57BL/6J male mice
[1] = Experimental Example 1: high fat diet-induced obese mice fed a 20% protein energy diet supplemented with lysine hydrochloride for 8 weeks
Excerpt: A high fat diet (dietary energy composition ratio was protein:fat:carbohydrate=17:46:37) was provided for 16 weeks to 30 5-week-old C57BL/6J male mice. At the 16th week, the 30 mice were divided into 3 groups, each consisting of 10 individuals (n=10), and from then, the following diets were provided for 8 weeks to the 3 groups, respectively, (1) 20% protein energy diet (LF; protein:fat:carbohydrate=2:7:1), (2) 20% protein energy diet supplemented with 1% lysine hydrochloride (LF1K; containing 1% lysine hydrochloride (0.8% lysine base)), and (3) 20% protein energy diet supplemented with 3% lysine hydrochloride (LF3K; containing 3% lysine hydrochloride (2.4% lysine base)). Herein, the term “lysine base” refers to free-form lysine. Further, as a nonobese group, a group (LL) was prepared consisting of 10 mice of the same species that were fed with 20% protein energy diet (protein:fat:carbohydrate=2:7:1) from the start of the experiment until the end, i.e., for 24 weeks.
The food intakes were measured and the energy intakes were determined from the energy per g of each test diet. After 8 weeks of the experimental period, the body weight and the total fat weight (sum of epididymal fat, perirenal fat, mesenteric fat, and subcutaneous fat in the periphery of the femoral region) were measured. Statistical analysis was performed using Dunnett's test employing the LF group as the control.

[2] = Experimental Example 2: mice fed 10/20/40/60% protein energy diets with or without 3% lysine hydrochloride for 4 weeks; conditions: after 4 weeks, vs respective diet without lysine supplementation
Excerpt: The following feeding stuffs were respectively provided for 4 weeks to 8 groups of 9-week-old C57BL/6J male mice, consisting of 10 individuals per group (n=10): (1) 10% protein energy diet (LP; dietary energy composition ratio was protein:fat:carbohydrate=1:1:8), (2) 10% protein energy diet supplemented with lysine hydrochloride (LPK), (3) 20% protein energy diet (LF; protein:fat:carbohydrate=2:1:7), (4) 20% protein energy diet supplemented with lysine hydrochloride (LFK), (5) 40% protein energy diet (MP; protein:fat:carbohydrate =4:1:5), (6) 40% protein energy diet supplemented with lysine hydrochloride (MPK), (7) 60% protein energy diet (HP; protein:fat:carbohydrate=6:1:3), and (8) 60% protein energy diet supplemented with lysine hydrochloride (HPK). The diets, when supplemented with lysine hydrochloride, were added with 3% lysine hydrochloride.
After 4 weeks the experimental period, the body weight, the total fat weight(sum of epididymal fat, perirenal fat, mesenteric fat, and subcutaneous fat in the periphery of the femoral region), and the kidney weight were measured. Statistical analysis was performed using Dunnett's test, employing the respective groups fed with the diets without lysine supplementation as the controls.

[3] = Experimental Example 3: mice fed high fat feed supplemented with lysine hydrochloride, triglyceride concentration in blood plasma
Excerpt: The following diets were respectively provided for 8 weeks to 4 groups of 9-week-old C57BL/6J male mice, consisting of 10 individuals per group (n=10): (1) 20% protein energy diet (LF; dietary energy composition ratio was protein:fat:carbohydrate=2:7:1), (2) high fat feed (HF; protein:fat:carbohydrate=17:46:37), (3) high fat food supplemented with 1% lysine hydrochloride (HF1K; containing 1% lysine hydrochloride (0.8% lysine base)), and (4) high fat feed supplemented with 3% lysine hydrochloride (HF3K; containing 3% lysine hydrochloride (2.4% lysine base)).
After 8 weeks of the experimental period, the triglyceride concentration in the blood plasma was measured. Statistical analysis was performed using Dunnett's test employing the HF group as the control.

[4] = after 8 weeks, 1% or 3% lysine hydrochloride in 20% protein energy diet, vs LF group, Dunnett's test p<0.05, dose-dependent
[5] = mice, feeding stuff having 20% protein energy, lysine component(s) 0.8 to 3.0 wt % on the dry matter basis

With `Cl.NCCCC[C@H](N)C(=O)O` [lysine hydrochloride, L-Lysine hydrochloride] the “body weight upon the autopsy” value [1, 4] was “significant decrease”, the “total fat weight (sum of epididymal, perirenal, mesenteric and femoral subcutaneous fat)” value [1, 4] was “significant decrease” and the “increase in body fat” value [1, 5] was “suppressed”. The “increase in body weight” value [1, 5] was “suppressed”, the total fat weight [2] was “decrease” and the body weight ([2]; Dunnett's test p<0.05) was “decrease”. For the same compound, the “increase in the triglyceride concentration in the blood plasma due to intake of the high fat diet” value ([3]; after 8 weeks, 1% or 3% lysine hydrochloride in high fat feed, vs HF group, Dunnett's test p<0.05) was “significantly inhibited” and the “improvement effect for hyperlipidemia” value ([3]; mice, lysine component(s) 0.8 to 3.0 wt % on the dry matter basis) was “improvement effect for hyperlipidemia was exhibited”.
